A short description of data set [1]: Stability of crystalline material under warm humid conditions (40° C., 75% relative humidity), PXRD before and after. Type of data set: physicochemical. The note with it: stored at 40° C., 75% relative humidity; stable = retained crystal form for at least two weeks by PXRD. On the procedure: The stability of these compounds under warm humid conditions was assessed as follows:
The crystalline material was stored at 40° C. in an atmosphere of 75% relative humidity.
Compounds were classed as stable if they retained their crystal form for at least two weeks as verified by examination of PXRD patterns collected before and after exposure to humidity.
It can be seen that the pattern obtained after 2 months at 75% relative humidity and 40° C. (upper trace) in this case is different.

Data set [2] can be described thus: Bioavailability in vivo in rats: lithium in plasma and brain by ICP-OES after oral administration. The note with it: rat, in vivo. On the procedure: Male Sprague-Dawley rats, weighing 240-290 g, were treated through gastric intubation with formulations of lithium and compared with lithium carbonate as a reference. For each formulation a group of 12 rats was treated. 4 mEq/kg of lithium were orally administered, after suspension in 2 mL of corn seeds oil (“Olio Cuore”).
Four intervals' post-administration time (2, 24, 48 and 72 hours) were considered and three rats for each of them, employing the protocol used by Zaworotko and coworkers (Smith et al., Mol. Pharmaceutics 2013, 10, 4728-4738). At each time interval blood samples were collected through intra-cardiac […], these were treated with 50 μL of sodium heparin and centrifuged for 10 min at 1600 rpm. Plasma samples of approximately […] each were thus obtained. The brain was explanted in toto with perfusion with phosphate buffered saline (PBS) in order to preserve it in a viable state. The plasma and brain samples were immediately frozen at a temperature of −80° C., after measuring the weight of the brains.
In order to determine the concentration of the lithium by means of the ICP-OES (Inductively Coupled Plasma Optical Emission Spectometry) analysis, plasma and brain samples were purified and mineralized, respectively to obtain solutions suitable for analysis.
A 0.5 mL aliquot was taken from each sample, to which were added equal amounts of MilliQ water and concentrated nitric acid, in order to bring the lithium ion in solution in the form of LiNO3 and to obtain the precipitation of the proteins. At this point, each sample was sonicated for 10 min in an ultrasonic bath and diluted to a volume of 5.0 mL.
All samples were subjected to centrifugation for a period of 40 min, at a rotational speed of 6000 rpm, to obtain complete plasma proteins/solution separation. At the end supernatant liquid containing lithium was diluted to a final volume of 15 mL by adding MilliQ water. The obtained solutions were stored at a temperature of 4° C. until analysis.
The purpose of this phase was to obtain liquid samples, suitable to ICP-OES analysis, containing lithium in solution, starting from the solid organic tissue of the brain. The mineralization process allows the complete degradation of organic substances until the total transformation into simple inorganic substances.
The first operation performed was that the drying of the fabric, obtained through the use of a digester open PerkinElmer SPB 100-12: each sample of brain has been inserted in special containers Digitube™ 100 mL and maintained at a temperature of 80° C. for 120 min.
The second step involved the mineralization true and proper brain: each sample were added to 10 mL of concentrated nitric acid and 1.0 mL of hydrogen peroxide, then the system was brought to a temperature of 120° C. for 120 min. until the complete mineralization. With this procedure you get the desired biological degradation of organic compounds and the consequent passage of lithium in solution. The solutions thus obtained were collected, brought to a final volume of 20 mL with MilliQ water and preserved at a temperature of 4° C. until time of analysis.
In order to obtain the determination of lithium ion concentrations in the samples previously prepared, optical emission spectrometry inductively coupled plasma ICP-OES was used (PerkinElmer Optima 8000 spectrometer).
The analysis was conducted at the fixed wavelength of lithium (λ=670.784 nm) and the intensity of the radiation emitted by each sample was measured and compared standard solutions.
Plasma and brain concentration data were processed using a non-compartmental approach using WinNonlin® software (Pharsight Corporation, USA) and Microsoft Excel XP (Microsoft Corporation, […]).

As usually defined, the AUC(0-t) is the area under the concentration-time curve up to a stated or last time point. Low readings indicate low exposure, high ones high exposure.

As to `O=C(O)[C@@H]1CCCN1.O=C([O-])c1ccccc1.[Li+]` [Compound 12, [Li(benzoate)(L-proline)]n], the “Stable?” value in data set [1] is given as “Yes”.
The same measure, in the same setting: under `CC(O)C(=O)[O-].CC(O)C(=O)[O-].NC(N)=O.O.O.[Li+].[Li+]` (centres unmarked) [Compound 21, [(Li2(lactate)2(water)2)(urea)]n] stands “No”.
On to `O=C(O)[C@@H]1CCCN1.O=C([O-])c1ccccc1O.[Li+]` [Compound 14, [Li(salicylate)(L-proline)]n], for which the “Stable?” value in data set [1] is “Yes”.
On the same count and under the same terms, under `CNCC(=O)O.O.O=C([O-])c1cccnc1.[Li+]` [Compound 9, [Li(nicotinate)(sarcosine)(water)]n] stands “No”.
Take `NC(=O)c1ccncc1.NC(=O)c1ccncc1.O=C([O-])CCC(=O)[O-].[Li+].[Li+]` [Compound 7, [Li2(succinate) (isonicotinamide)2]n]: the “Stable?” value in data set [1] is listed as “Yes”. Further, the “AUC (Cerebral)/AUC (Plasma)” value in data set [2] amounted to 1.077. Moreover, in data set [2] (po), the area under the curve AUC(0-t) came out at 197 µg·h/mL, the “AUClast (brain)” value was 211.7400 mg·h/g, the “Cmax (brain)” value is 5.1533 µg/g and the “Cmax (plasma)” value was 4.1400 µg/mL. Also, in data set [2] (po), the “Relative Brain BA (UL crystal forms, oral vs Li2CO3, oral)” value was 91.11%; the “Relative Plasma BA (UL crystal forms, oral vs Li2CO3 oral)” value amounted to 72.96%; the “Tmax (brain)” value came to 48 h; the “Tmax (plasma)” value was found to be 24 h. In addition, in data set [2] (po), the “t½_Lambda_z (brain)” value is 7.7957 h and the “t½_Lambda_z (plasma)” value came to 15.0424 h.
Turning to `NCCC(=O)O.NCCC(=O)O.O.O=C([O-])C(=O)[O-].[Li+].[Li+]` [Compound 25, [Li2(oxalate)(beta-alanine)2(water)]n], the “Stable?” value in data set [1] is listed as “No”.

(Values after patent US12234248B2, “Co-crystal compounds comprising lithium ions and isonicotinamide” (UNIVERSITY OF LIMERICK, priority 2017, dated 2025).)
